# In patent publication US20230116733A1, “NOVEL INDAZOLE DERIVATIVE AND USE THEREOF” (KOREA RESEARCH INSTITUTE OFCHEMICAL TECHNOLOGY, priority 2019, published 2023):
# Where a name gives a salt, the structure may show the parent alone. Read-outs that look alike come from different tables or passages of the source.
# Columns and labels:
# HepG2 = test: Assay for anticancer activity, cell viability (Cell Counting Kit-8); type: cell-based; settings: HepG2 cells, 10 μM compound, 3 days
# Method: (§1) Assay for anticancer activity was conducted as follows. Corresponding cancer cells were seeded at a density of 4,000 cells/well into 96-well plates and stabilized for 24 hours. Thereafter, the cells in each well were treated with 10 μM of the each of the compounds for 3 days. Then, cell viability was assayed using Cell Counting Kit-8 from Dojindo.
# A549 = test: as above; type: cell-based; settings: A549 cells, 10 μM compound, 3 days
# Method: as §1
# TRIB2 = molecular target: T1, TRIB2 (Homo sapiens, UniProt Q92519); test: TRIB2 kinase activity assay (Eurofins, 33P-ATP filter binding); type: biochemical; design: purchased Eurofins
# T1 sequence (Q92519 1-343): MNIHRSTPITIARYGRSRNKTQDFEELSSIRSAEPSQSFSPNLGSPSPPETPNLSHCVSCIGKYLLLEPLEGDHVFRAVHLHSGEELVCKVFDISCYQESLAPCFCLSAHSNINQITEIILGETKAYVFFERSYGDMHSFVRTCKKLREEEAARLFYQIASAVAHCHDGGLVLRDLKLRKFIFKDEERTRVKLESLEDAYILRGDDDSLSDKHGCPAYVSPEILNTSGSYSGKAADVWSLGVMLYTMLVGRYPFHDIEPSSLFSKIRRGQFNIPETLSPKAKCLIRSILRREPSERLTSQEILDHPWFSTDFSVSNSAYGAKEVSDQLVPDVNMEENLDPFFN
# Method: TRIB2 kinase activity assay was conducted in Eurofins. […] Afterward, the reaction was terminated with 0.5% phosphoric acid.
# [1] = human TRIB2, 15 μM gamma-33P-ATP, 120 minutes at room temperature, read-out: TRIB2 Kimase activity assay IC50
IC50 (TRIB2; [1]),SMILES,Cell viability (% of Con. 10 μM) HepG2 (HepG2),Cell viability (% of Con. 10 μM) A549 (A549),IC50 (TRIB2)
1 to 10 nM,"CC1(C)Cc2ccc(NC(=O)c3n[nH]c4ccc(-c5cccnc5F)cc34)cc2CN1 [Compound 71, N-(3,3-dimethyl-1,2,3,4-tetrahydroisoquinolin-7-yl)-5-(2-fluoropyridin-3-yl)-1H-indazole-3-carboxamide]",9 % of Con.,10 % of Con.,–
10 to 100 nM,"O=C(NC1CCN(C(=O)c2ccccc2)CC1)c1nn(C(=O)c2ccccc2)c2ccc(-c3cccnc3F)cc12 [Compound 10, 1-benzoyl-N-(1-benzoylpiperidin-4-yl)-5-(2-fluoropyridin-3-yl)-1H-indazole-3-carboxamide]",–,–,–
100 to 1000 nM,"O=C(c1n[nH]c2ccc(-c3cccnc3F)cc12)N1CCc2ccccc2C1 [Compound 21, (3,4-dihydroisoquinolin-2-(1H)-yl)(5-(2-fluoropyridin-3-yl)-1H-indazol-3-yl)methanone]",–,–,–
1 to 10 nM,"O=C(Nc1ccc2c(c1)CNCC2)c1n[nH]c2ccc(-c3cccnc3F)cc12 [Compound 55, 5-(2-fluoropyridin-3-yl)-N-(1,2,3,4-tetrahydroisoquinolin-7-yl)-1H-indazole-3-carboxamide hydrochloride]",12 % of Con.,10 % of Con.,–
10 to 100 nM,"Cn1ncc2c(NC(=O)c3n[nH]c4ccc(-c5cccnc5F)cc34)ccnc21 [Compound 65, 5-(2-fluoropyridin-3-yl)-N-(1-methyl-1H-pyrazolo[3,4-b]pyridin-4-yl)-1H-indazole-3-carboxamide]",28 % of Con.,24 % of Con.,–
10 to 100 nM,"O=C(Nc1ccncc1)c1n[nH]c2ccc(-c3cn[nH]c3)cc12 [Compound 26, 5-(1H-pyrazol-4-yl)-N-(pyridin-4-yl)-1H-indazole-3-carboxamide]",24 % of Con.,30 % of Con.,–
1 to 10 nM,"CC1(C)NCCc2ccc(NC(=O)c3n[nH]c4ccc(-c5cccnc5F)cc34)cc21 [Compound 59, N-(1,1-dimethyl-1,2,3,4-tetrahydroisoquinolin-7-yl)-5-(2-fluoropyridin-3-yl)-1H-indazole-3-carboxamide]",6 % of Con.,2 % of Con.,–
1 to 10 nM,"O=C(Nc1ccc2c(c1)CN(C(=O)C(F)(F)F)CC2)c1nn(C2CCCCO2)c2ccc(-c3cccnc3F)cc12 (stereo not drawn) [Compound 53, 5-(2-fluoropyridin-3-yl)-1-(tetrahydro-2H-pyran-2-yl)-N-(2-(2,2,2-trifluoroacetyl)-1,2,3,4-tetrahydroisoquinolin-7-yl)-1H-indazole-3-carboxamide]",10 % of Con.,13 % of Con.,–
1 to 10 nM,"CC1NCCc2ccc(NC(=O)c3n[nH]c4ccc(-c5cccnc5F)cc34)cc21 (stereo not drawn) [Compound 63, 5-(2-fluoropyridin-3-yl)-N-(1-methyl-1,2,3,4-tetrahydroisoquinolin-7-yl)-1H-indazole-3-carboxamide]",7 % of Con.,4 % of Con.,–
1 to 10 nM,"O=C(Nc1ccc2c(c1)CN(C(=O)C(F)(F)F)CC2)c1n[nH]c2ccc(-c3cccnc3F)cc12 [Compound 24, 5-(2-fluoropyridin-3-yl)-N-(2-(2,2,2-trifluoroacetyl)-1,2,3,4-tetrahydroisoquinolin-7-yl)-1H-indazole-3-carboxamide]",10 % of Con.,–,–
–,"O=C(Nc1ccncc1)c1n[nH]c2ccc(-c3cnn(C4CCNCC4)c3)cc12 [Compound 73, 5-(1-(piperidin-4-yl)-1H-pyrazol-4-yl)-N-(pyridin-4-yl)-1H-indazole-3-carboxamide hydrochloride]",36 % of Con.,49 % of Con.,10 to 100 nM
10 to 100 nM,"O=C(NCc1ccncc1)c1n[nH]c2ccc(-c3cccnc3F)cc12 [Compound 51, 5-(2-fluoropyridin-3-yl)-N-(pyridin-4-ylmethyl)-1H-indazole-3-carboxamide]",37 % of Con.,44 % of Con.,–
100 to 1000 nM,"O=C(NC1CCCCC1)c1n[nH]c2ccc(-c3cccnc3F)cc12 [Compound 14, N-Cyclohexyl-5-(2-fluoropyridin-3-yl)-1H-indazole-3-carboxamide]",–,–,–
10 to 100 nM,"O=C(Nc1ccncc1)c1n[nH]c2ccc(-c3ccc(N4CCNCC4)cc3)cc12 [Compound 46, 5-(4-(piperazin-1-yl)phenyl)-N-(pyridin-4-yl)-1H-indazole-3-carboxamide hydrochloride]",46 % of Con.,58 % of Con.,–
10 to 100 nM,"CC(C)n1cc(-c2ccc3[nH]nc(C(=O)Nc4ccncc4)c3c2)cn1 [Compound 28, 5-(1-isopropyl-1H-pyrazol-4-yl)-N-(pyridin-4-yl)-1H-indazole-3-carboxamide]",16 % of Con.,17 % of Con.,–
100 to 1000 nM,"O=C(NC1CCN(C(=O)C2CC2)CC1)c1nn(C(=O)C2CC2)c2ccc(-c3cccnc3F)cc12 [Compound 11, 1-(cyclopropanecarbonyl)-N-(1-(cyclopropanecarbonyl)piperidin-4-yl)-5-(2-fluoropyridin-3-yl)-1H-indazole-3-carboxamide]",–,–,–
10 to 100 nM,"O=C(NC1CCN(C(=O)c2ccccc2)CC1)c1n[nH]c2ccc(-c3cccnc3F)cc12 [Compound 12, N-(1-benzoylpiperidin-4-yl)-5-(2-fluoropyridin-3-yl)-1H-indazole-3-carboxamide]",–,–,–
1 to 10 nM,"O=C(Nc1ccncc1)c1n[nH]c2ccc(-c3cnn(Cc4ccccc4)c3)cc12 [Compound 33, 5-(1-benzyl-1H-pyrazol-4-yl)-N-(pyridin-4-yl)-1H-indazole-3-carboxamide]",–,20 % of Con.,–
100 to 1000 nM,"O=C(NCCN1CCOCC1)c1n[nH]c2ccc(-c3cccnc3F)cc12 [Compound 22, 5-(2-fluoropyridin-3-yl)-N-(2-morpholinoethyl)-1H-indazole-3-carboxamide]",–,–,–
100 to 1000 nM,"O=C(N[C@H]1CC[C@H](O)CC1)c1n[nH]c2ccc(-c3cccnc3F)cc12 [Compound 16, 5-(2-fluoropyridin-3-yl)-N-((1r,4r)-4-hydroxycyclohexyl)-1H-indazole-3-carboxamide]",–,–,–
–,"O=Cc1cc2c(cc1-c1ccc3[nH]nc(C(=O)Nc4ccncc4)c3c1)OCO2 [Compound 52, 5-(6-formylbenzo[d][1,3]dioxol-5-yl)-N-(pyridin-4-yl)-1H-indazole-3-carboxamide]",32 % of Con.,39 % of Con.,10 to 100 nM
10 to 100 nM,"Cn1cc(-c2ccc3[nH]nc(C(=O)Nc4ccncc4)c3c2)cn1 [Compound 29, 5-(1-methyl-1H-pyrazol-4-yl)-N-(pyridin-4-yl)-1H-indazole-3-carboxamide]",16 % of Con.,31 % of Con.,–
100 to 1000 nM,"N[C@H]1CC[C@@H](NC(=O)c2n[nH]c3ccc(-c4cccnc4F)cc23)CC1 [Compound 18, N-((1s, 4s)-4-aminocyclohexyl)-5-(2-fluoropyridin-3-yl)-1H-indazole-3-carboxamide]",–,–,–
10 to 100 nM,"O=C(Nc1ccncc1)c1n[nH]c2ccc(-c3ccoc3)cc12 [Compound 34, 5-(furan-3-yl)-N-(pyridin-4-yl)-1H-indazole-3-carboxamide]",49 % of Con.,51 % of Con.,–
1 to 10 nM,"CCCn1cc(-c2ccc3[nH]nc(C(=O)Nc4ccncc4)c3c2)cn1 [Compound 36, 5-(1-propyl-1H-pyrazol-4-yl)-N-(pyridin-4-yl)-1H-indazole-3-carboxamide]",15 % of Con.,28 % of Con.,–
–,"O=C(Nc1ccncc1)c1nn(C2CCCCO2)c2ccc(-c3cccnc3F)cc12 (stereo not drawn) [Compound 66, 5-(2-fluoropyridin-3-yl)-N-(pyridin-4-yl)-1-(tetrahydro-2H-pyran-2-yl)-1H-indazole-3-carboxamide]",11 % of Con.,55 % of Con.,10 to 100 nM
10 to 100 nM,"O=C(NC1CCNC1)c1n[nH]c2ccc(-c3cccnc3F)cc12 (stereo not drawn) [Compound 20, 5-(2-fluoropyridin-3-yl)-N-(pyrrodin-3-yl)-1H-indazole-3-carboxamide]",–,–,–
10 to 100 nM,"O=C(NC1CCNCC1)c1n[nH]c2ccc(-c3ccnc(F)c3)cc12 [Compound 13, 5-(2-fluoropyridin-4-yl)-N-(piperidin-4-yl)-1H-indazole-3-carboxamide]",–,–,–

SMILES,IC50 (TRIB2; [1]),Cell viability (% of Con. 10 μM) HepG2 (HepG2),Cell viability (% of Con. 10 μM) A549 (A549),IC50 (TRIB2)
"N[C@H]1CC[C@H](NC(=O)c2n[nH]c3ccc(-c4cccnc4F)cc23)CC1 [Compound 19, N-((1r, 4r)-4-aminocyclohexyl)-5-(2-fluoropyridin-3-yl)-1H-indazole-3-carboxamide]",100 to 1000 nM,–,–,–
